Data as given in patent US20220087969A1, “METHOD FOR TREATING ASTHMA” (Olatec Therapeutics LLC, priority 2019, published 2022).
Read-outs that look alike come from different tables or passages of the source.

What was measured:
[1] = tested on: OVA-induced allergic airway inflammation; experiment: Leukocyte subpopulations in bronchoalveolar lavage fluid, OVA allergic asthma model, i.p. dapansutrile; assay type: in vivo, C57BL/6j mice; conditions: Day 29
From the text: A well-established mouse model of experimental allergic asthma (Sel 2008, Wegmann 2005, Wegmann 2007, Lunding 2015a) was used to evaluate dapansutrile as a therapeutic option in allergic bronchial asthma and to determine if dapansutrile would have an impact on airway inflammation and the development of airway hyperresponsiveness (AHR) Inflammation in this model is characterized by the infiltration of eosinophils as well as of TH2 cells and involves the subsequent development of AHR and mucus hyperproduction so that this model resembles the major pathophysiologic hallmarks of human bronchial asthma.
C57BL/6j mice were sensitized to OVA (ovalbumin) by three intraperitoneal (i.p.) injections of 10 μg OVA adsorbed to 150 mg aluminum hydroxide on days 1, 14, and 21. This sensitization results in an adoptive immune response against OVA with OVA-specific TH2 cells and the production of OVA-specific antibodies of the subclasses IgE and IgG4.
To induce acute allergic airway inflammation, mice were exposed three times to an OVA aerosol (1% w/v in PBS) on days 26, 27, and 28.
Healthy control animals (healthy group) were sham sensitized to PBS and subsequently challenged with PBS aerosol. Non-drug treated animals (asthmatic group) and drug-treated animals (treated group) were sensitized by […] and subsequently challenged with OVA aerosol. The treatment group were treated with dapansutrile at 60 mg/kg at days 25, 26, 27, and 28 by intraperitoneal (i.p). injection, whereas the healthy group and the asthmatic group were administered with saline by intraperitoneal injection on days 25, 26, 27, and 28.
Eight animals per group were used. All animals were sacrificed on day 29. The following readouts were measured according to Lunding, 2015b. • General infiltration of inflammatory cells into the broncheoalveolar lumen • Determination of the specific infiltration of eosinophils, neutrophils and lymphocytes by histologic differentiation of the bronchoalveolar lavage (BAL) cells. • Goblet cell hyperplasia by CAST system (Computer Assisted Stereological Toolbox), including making microscopic pictures of the airways. • Airway resistance in response to methacholine to determine the airway hyperresponsiveness.
Specifically, inflammatory cell subpopulations (eosinophils, macrophages, neutrophils, lymphocytes) infiltrating the bronchoalveolar lumen were quantified using cyto-spinned and quick-diff-stained cells from bronchoalveolar lavage fluids (BALF). Further, inflammatory cell infiltration was recorded from hematoxylin and eosin (HE)-stained lung/airway cross-sections. AHR was assessed by recording airway resistance during a methacholine (MCh) provocation test in mice mechanically ventilated by a Buxco FinePoint RC unit. Mucus hyperproduction was quantified in PAS (periodic acid-Schiff)-stained airway cross-sections undergoing systematic, uniform random sampling and subsequent stereologic analysis of mucus amount in the airways and mucus producing goblet cells in the airway mucosa.
Allergic airway inflammation and mucus hyperproduction were assessed on Day 29, 24 hours after the final OVA aerosol challenge and dapansutrile dose.

[2] = tested on: OVA-induced allergic airway inflammation; experiment: Leukocyte subpopulations in BALF, OVA model, oral dapansutrile in food; assay type: in vivo, mice
Method: (§1) The experimental protocols of the mouse model were the same as those described in Example 1, except dapansutrile was administered orally by food. The already-sensitized mice were fed ad libidum with food pellets containing 7.5 g/kg dapansutrile starting on day 22 for one week; the first aerosol challenge was on day 26. Mice typically consume about 4 g of food per day, resulting in an approximate daily dose of 0 mg/kg/day for control groups and 1,000 mg/kg/day for the treatment groups. […] OVA-sensitized, OVA-challenged asthmatic controls (asthmatic) were fed with control food pellets without dapansutrile.

[3] = tested on: OVA-induced allergic airway inflammation; experiment: Airway resistance in response to MCh, OVA model, oral dapansutrile in food; assay type: in vivo, mice; conditions: 100 mg/mL MCh
Method: as §1, with “dapansutrile. […] Baseline airway resistance of healthy animals was 2.58 cm H2O·s/mL at 100 mg/mL MCh.” for “dapansutrile.”

[4] = Blood level in mice fed dapansutrile food pellets; assay type: in vivo, mouse; conditions: 7.5 g/kg dapansutrile in food, nearly the same as the human level
Method: The already-sensitized mice were fed ad libidum with food pellets containing 7.5 g/kg dapansutrile starting on day 22 for one week; the first aerosol challenge was on day 26. Mice typically consume about 4 g of food per day, resulting in an approximate daily dose of 0 mg/kg/day for control groups and 1,000 mg/kg/day for the treatment groups.

[5] = humans, oral 1000 mg/day; Marchetti 2018b; cited from earlier work
[6] = oral, 7.5 g/kg in food, vs asthmatic mice, p<0.05

Structure (SMILES): CS(=O)(=O)CCC#N [dapansutrile, 3-methanesulfonylpropionitrile]
- reduction in lymphocytes in BALF ([1]; 60 mg/kg i.p. days 25-28, vs asthmatic mice): 32%
- reduction in eosinophils in BALF ([1]; 60 mg/kg i.p. days 25-28, vs asthmatic mice, p<0.0001): approximately 60%
- reduction in neutrophils in BALF ([1]; 60 mg/kg i.p. days 25-28, vs asthmatic mice, p<0.01): 70%
- macrophage numbers in BALF ([1]; 60 mg/kg i.p., vs asthmatic mice): no significant reduction
- eosinophils in BALF ([1]; treated mice, 60 mg/kg i.p. days 25-28, asthmatic 21.96×10^4): 7.30×10^4 cells/ml
- lymphocytes in BALF ([1]; treated mice, 60 mg/kg i.p., asthmatic 0.80×10^4): 0.55×10^4 cells/ml
- neutrophils in BALF ([1]; treated mice, 60 mg/kg i.p., asthmatic 2.41×10^4): 0.70×10^4 cells/ml
- reduction in eosinophils in BALF ([2]; oral, 7.5 g/kg in food from day 22 for one week, vs asthmatic mice, p<0.0001): ~75%
- macrophage numbers in BALF ([2]; oral, 7.5 g/kg in food, vs asthmatic mice): no significant reduction
- reduction in lymphocytes in BALF [2, 6]: ~75%
- reduction in neutrophils in BALF [2, 6]: ~75%
- lymphocytes in BALF ([2]; treated mice, oral 7.5 g/kg in food, asthmatic 1.00×10^4): 0.26×10^4 cells/ml
- neutrophils in BALF ([2]; treated mice, oral 7.5 g/kg in food, asthmatic 1.74×10^4): 0.43×10^4 cells/ml
- eosinophils in BALF ([2]; treated mice, oral 7.5 g/kg in food, asthmatic 15.93×10^4): 3.77×10^4 cells/ml
- reduction of airway resistance in response to MCh ([3]; oral, 7.5 g/kg in food, vs sham-treated asthmatic controls, p<0.01): approximately 60%
- airway resistance in response to MCh ([3]; treated mice, oral 7.5 g/kg in food, asthmatic 4.57, healthy 2.58): 3.38 cm H2O·s/mL
- blood level [4]: ~40000 ng/mL
- blood level [5]: 40000 ng/mL
